In patent publication EP4559908A1, “HETEROARYL DERIVATIVE COMPOUND AND USE THEREOF” (S2CBio Inc., priority 2022, dated 2024):

Molecular target: T1, human ANO6 (variant 5) (Homo sapiens, UniProt Q4KMQ2)
T1 construct: expressed in transfected cells; host or cells: Fischer rat thyroid (FRT) cells
T1 sequence (Q4KMQ2 1-931 isoform Q4KMQ2-2): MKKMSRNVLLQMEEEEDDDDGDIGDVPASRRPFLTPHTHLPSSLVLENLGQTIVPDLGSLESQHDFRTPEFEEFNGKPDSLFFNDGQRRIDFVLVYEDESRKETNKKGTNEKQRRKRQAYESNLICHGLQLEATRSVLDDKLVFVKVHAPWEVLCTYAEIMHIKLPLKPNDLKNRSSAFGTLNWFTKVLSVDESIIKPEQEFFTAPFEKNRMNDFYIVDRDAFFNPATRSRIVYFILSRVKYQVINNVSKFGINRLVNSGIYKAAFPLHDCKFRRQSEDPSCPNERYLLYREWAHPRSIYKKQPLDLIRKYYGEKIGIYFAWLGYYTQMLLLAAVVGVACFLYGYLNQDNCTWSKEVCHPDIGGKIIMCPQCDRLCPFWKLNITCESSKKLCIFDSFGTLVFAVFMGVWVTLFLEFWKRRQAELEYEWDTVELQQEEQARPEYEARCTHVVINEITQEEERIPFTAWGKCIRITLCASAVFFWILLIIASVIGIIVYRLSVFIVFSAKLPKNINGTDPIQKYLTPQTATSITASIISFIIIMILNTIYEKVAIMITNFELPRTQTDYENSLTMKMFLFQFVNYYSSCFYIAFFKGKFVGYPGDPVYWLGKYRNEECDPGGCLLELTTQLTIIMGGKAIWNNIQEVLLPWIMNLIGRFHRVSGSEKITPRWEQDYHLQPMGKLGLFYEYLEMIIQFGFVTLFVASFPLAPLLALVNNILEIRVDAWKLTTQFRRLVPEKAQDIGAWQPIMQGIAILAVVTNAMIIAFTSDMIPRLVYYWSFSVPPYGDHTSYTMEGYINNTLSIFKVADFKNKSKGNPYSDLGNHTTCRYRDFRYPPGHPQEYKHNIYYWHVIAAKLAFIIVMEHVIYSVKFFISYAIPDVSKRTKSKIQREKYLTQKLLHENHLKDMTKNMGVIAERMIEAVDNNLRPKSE
Assay: Lact C2 assay (measuring phosphatidylserine externalization scramblase function)
Format: cell-based
Settings: FRT, FRT cells expressing human ANO6 (variant 5), ionomycin 10 µM, Lact-C2-GFP fluorescence, average of three tests; for inhibition at 0.05 µM: compound 50 nM, read-out: % Inhibition 50 nM; for inhibition at 1 µM: compound 1 µM, read-out: % Inhibition 1 µM
Outline: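 Cells were pretreated 10 min with compound (50 nM, 100 nM, 1 µM; 1% DMSO), then given 10 µM ionomycin for 10 min. Surface phosphatidylserine was stained with 500 nM Lact-C2-GFP (10 min, 37 °C), fixed and imaged. Inhibition was scaled between untreated (100%) and ionomycin-alone (0%) wells.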

Compound | inhibition at 0.05 µM [%] | inhibition at 1 µM [%]
FC(F)(F)c1ccc2nc(-c3cccc(Nc4ccc(-c5ccccn5)cc4)c3)[nH]c2c1 [Example 98, N-[4-(2-pyridyl)phenyl]-3-[6-(trifluoromethyl)-1H-benzo[d]imidazol-2-yl]aniline] | > 60 | > 60
Fc1cc2nc(-c3cccc(Nc4ncc(-c5cccnn5)cn4)c3)[nH]c2cc1F [Example 99, N-[3-(5,6-difluoro-1H-benzo[d]imidazol-2-yl)phenyl]-5-pyridazin-3-yl-pyrimidin-2-amine] | 30 to 60 | > 60
FC(F)(F)c1ccc2nc(-c3cccc(Nc4ccc(-c5ncccn5)cn4)c3)[nH]c2c1 [Example 100, 5-pyrimidin-2-yl-N-[3-[6-(trifluoromethyl)-1H-benzo[d]imidazol-2-yl]phenyl]pyridin-2-amine] | > 60 | > 60
Cc1cccc2nc(-c3cccc(Nc4ccc(-c5cccnn5)cc4)c3)[nH]c12 [Example 101, 3-(7-methyl-1H-benzo[d]imidazol-2-yl)-N-(4-pyridazin-3-ylphenyl)aniline] | > 60 | > 60
Fc1cc2[nH]c(-c3cccc(Nc4ccc(-c5cccnn5)cc4)c3)nc2cc1Cl [Example 102, 3-(5-chloro-6-fluoro-1H-benzo[d]imidazol-2-yl)-N-(4-pyridazin-3-ylphenyl)aniline] | > 60 | > 60
FC(F)(F)c1cc2[nH]c(-c3cccc(Nc4ncc(-c5cccnn5)cn4)c3)nc2cn1 [Example 103, 5-pyridazin-3-yl-N-[3-[6-(trifluoromethyl)-1H-imidazo[4,5-c]pyridin-2-yl]phenyl]pyrimidin-2-amine] | – | > 60
Fc1cc2[nH]c(-c3cccc(Nc4ccc(-c5cccnn5)cc4)c3)nc2cc1C(F)(F)F [Example 104, 3-[6-fluoro-5-(trifluoromethyl)-1H-benzo[d]imidazol-2-yl]-N-(4-pyridazin-3-ylphenyl)aniline] | > 60 | > 60
Cc1ccc2nc(-c3cccc(Nc4ccc(-c5cccnn5)cc4)c3)[nH]c2c1 [Example 105, 3-(6-methyl-1H-benzo[d]imidazol-2-yl)-N-(4-pyridazin-3-ylphenyl)aniline] | > 60 | > 60
CC(C)(C)c1ccc2nc(-c3cccc(Nc4ccc(-c5cccnn5)cc4)c3)[nH]c2c1 [Example 107, 3-(6-tert-butyl-1H-benzo[d]imidazol-2-yl)-N-(4-pyridazin-3-ylphenyl)aniline] | 30 to 60 | > 60
COc1ccc2nc(-c3cccc(Nc4ncc(-c5cccnn5)cn4)c3)[nH]c2c1 [Example 108, N-[3-(6-methoxy-1H-benzo[d]imidazol-2-yl)phenyl]-5-pyridazin-3-yl-pyrimidin-2-amine] | – | 30 to 60
FC(F)(F)Oc1ccc2nc(-c3cccc(Nc4ccc(-c5ccncn5)cc4)c3)[nH]c2c1 [Example 109, N-(4-pyrimidin-4-ylphenyl)-3-[6-(trifluoromethoxy)-1H-benzo[d]imidazol-2-yl]aniline] | > 60 | > 60
CC(C)OC(=O)c1ccc2nc(-c3cccc(Nc4ccc(-c5cccnn5)cc4)c3)[nH]c2c1 [Example 111, isopropyl 2-(3-((4-(pyridazin-3-yl)phenyl)amino)phenyl)-1H-benzo[d]imidazole-6-carboxylate] | 30 to 60 | > 60
Cc1cc2nc(-c3cccc(Nc4ccc(-c5cccnn5)cc4)c3)[nH]c2cc1F [Example 114, 3-(6-fluoro-5-methyl-1H-benzo[d]imidazol-2-yl)-N-(4-pyridazin-3-ylphenyl)aniline] | 30 to 60 | > 60
Clc1cccc2nc(-c3cccc(Nc4ccc(-c5cccnn5)cc4)c3)[nH]c12 [Example 115, 3-(7-chloro-1H-benzo[d]imidazol-2-yl)-N-(4-pyridazin-3-ylphenyl)aniline] | – | > 60
Clc1cc2[nH]c(-c3cccc(Nc4ccc(-c5ccncn5)cc4)c3)nc2cn1 [Example 117, 3-(6-chloro-1H-imidazo[4,5-c]pyridin-2-yl)-N-(4-pyrimidin-4-ylphenyl)aniline] | – | > 60
FC(F)(F)Oc1ccc2nc(-c3cccc(Nc4ncc(-c5ccccn5)cn4)c3)[nH]c2c1 [Example 118, 5-(2-pyridyl)-N-[3-[6-(trifluoromethoxy)-1H-benzo[d]imidazol-2-yl]phenyl]pyrimidin-2-amine] | > 60 | > 60

Results, then the molecule that gave them:

inhibition at 0.05 µM [%] | inhibition at 1 µM [%] | Compound
30 to 60 | > 60 | Clc1cc2[nH]c(-c3cccc(Nc4ccc(-c5ccccn5)cc4)c3)nc2cn1 [Example 119, 3-(6-chloro-1H-imidazo[4,5-c]pyridin-2-yl)-N-[4-(2-pyridyl)phenyl]aniline]
> 60 | > 60 | FC(F)(F)Oc1cc2nc(-c3cccc(Nc4ncc(-c5cccnn5)cn4)c3)[nH]c2cc1Cl [Example 120, N-[3-[6-chloro-5-(trifluoromethoxy)-1H-benzo[d]imidazol-2-yl]phenyl]-5-pyridazin-3-yl-pyrimidin-2-amine]
– | > 60 | c1cc(Nc2ncc(-c3ccoc3)cn2)cc(-c2nc3ccccc3[nH]2)c1 [Example 163, N-[3-(1H-benzo[d]imidazol-2-yl)phenyl]-5-(3-furyl)pyrimidin-2-amine]
30 to 60 | > 60 | c1cc(Nc2ncc(-c3ccsc3)cn2)cc(-c2nc3ccccc3[nH]2)c1 [Example 164, N-[3-(1H-benzo[d]imidazol-2-yl)phenyl]-5-(3-thienyl)pyrimidin-2-amine]
30 to 60 | > 60 | c1cc(Nc2ccc(-c3ncco3)cc2)cc(-c2nc3ccccc3[nH]2)c1 [Example 165, 3-(1H-benzo[d]imidazol-2-yl)-N-(4-oxazol-2-ylphenyl)aniline]
> 60 | > 60 | c1cc(Nc2ccc(-c3cscn3)cc2)cc(-c2nc3ccccc3[nH]2)c1 [Example 166, 3-(1H-benzo[d]imidazol-2-yl)-N-(4-thiazol-4-ylphenyl)aniline]
– | 30 to 60 | c1cc(Nc2ncc(-c3ncco3)cn2)cc(-c2nc3ccccc3[nH]2)c1 [Example 171, N-[3-(1H-benzo[d]imidazol-2-yl)phenyl]-5-oxazol-2-yl-pyrimidin-2-amine]
– | 30 to 60 | CN(C)CCOc1ccc(-c2nc3ccc(C(F)(F)F)cc3[nH]2)cc1Nc1ccc(-c2cnccn2)cc1 [Example 174, 2-[2-(dimethylamino)ethoxy]-N-(4-pyrazin-2-ylphenyl)-5-[6-(trifluoromethyl)-1H-benzo[d]imidazol-2-yl]aniline]
– | > 60 | CN1CCN(CCOc2ccc(-c3nc4ccc(C(F)(F)F)cc4[nH]3)cc2Nc2ccc(-c3cnccn3)cc2)CC1 [Example 175, 2-[2-(4-methylpiperazin-1-yl)ethoxy]-N-(4-pyrazin-2-ylphenyl)-5-[6-(trifluoromethyl)-1H-benzo[d]imidazol-2-yl]aniline]
– | 30 to 60 | CN1CCN(c2ccc(-c3nc4ccc(C(F)(F)F)cc4[nH]3)cc2Nc2ncc(-c3cccnn3)cn2)CC1 [Example 176, N-(2-(4-methylpiperazin-1-yl)-5-(6-(trifluoromethyl)-lH-benzo[d]imidazol-2-yl)phenyl)-5-(pyridazin-3-yl)pyrimidin-2-amine]
30 to 60 | > 60 | Cc1cc(-c2cccnn2)ccc1Nc1cccc(-c2nc3ccccc3[nH]2)c1 [Example 203, N-(3-(1H-benzo[d]imidazol-2-yl)phenyl)-2-methyl-4-(pyridazin-3-yl)aniline]
– | > 60 | Cc1cc(Nc2cccc(-c3nc4ccccc4[nH]3)c2)ccc1-c1cccnn1 [Example 204, N-(3-(1H-benzo[d]imidazol-2-yl)phenyl)-3-methyl-4-(pyridazin-3-yl)aniline]
– | > 60 | Nc1cc(Nc2cccc(-c3nc4ccccc4[nH]3)c2)ccc1-c1cccnn1 [Example 207, N^1-(3-(1H-benzo[d]imidazol-2-yl)phenyl)-4-(pyridazin-3-yl)benzene-1,3-diamine]
– | > 60 | COc1cc(Nc2cccc(-c3nc4ccccc4[nH]3)c2)ccc1-c1cccnn1 [Example 208, N-(3-(1H-benzo[d]imidazol-2-yl)phenyl)-3-methoxy-4-(pyridazin-3-yl)aniline]
